Details of data set [1]: species or system beagle dogs. As to conditions: dog, in vivo. The method, then:
The local toxicology of Form 1 of the compound of Formula (I) in dogs was studied. The compound of Formula (I) (Form 1) was administered via single or multiple (9 times) intra-articular (IA) injections as a suspension composition in beagle dogs to evaluate local toxicity.
After IA injection, the right stifle joint was histologically evaluated for inflammation, cartilage health, bone density, etc. Toxicology was evaluated immediately after a single or multiple (3 or 9 once-monthly) IA injections.
The NOAEL for the compound of Formula (I) in this study was considered to be 116 μg/knee.

The nature of data set [2]: Phase 1 clinical study: pharmacokinetics. It is filed as in vivo. As to conditions: human; cohorts 1, 2, and 3 (0.03, 0.07, 0.23 mg); 0, 4, 24 hours, Weeks 4 and 12; BQL. The text has this: The study was a first-in-human, multicenter, 24-week, placebo-controlled, single-dose, dose-escalation safety study of a Wnt pathway inhibitor in subjects suffering from moderate to severe symptomatic knee OA. The sample size was 20 subjects (randomized 4:1, 16 active: 4 placebo) per dosing cohort. Inclusion criteria included: Age, 50-75 years; Western Ontario and McMaster Universities Arthritis Index (WOMAC) Total score, 36-72 (out of 96); Kellgren-Lawrence grade, 2 or 3; and a willingness to omit pain medication for 24 hours prior to pain assessments. Exclusion criteria included: BMI>40; and treatment with IA steroids within 2 months or HA derivatives within 6 months prior to injection. A full list of the inclusion and exclusion criteria for this study can be found on clinicaltrials.gov (NCT02095548).
The dosing sequence included suspension compositions of either 0.03 mg, 0.07 mg, or 0.23 mg of the compound of Formula (I) (Form 1) per 2 mL injection in a vehicle containing 0.5% carboxymethylcellulose sodium and 0.05% polysorbate 80 in pH 7.4 phosphate buffered saline. […]
PK samples were collected at 0, 4, and 24 hours post dose, and at Weeks 4 and 12. All subjects in cohorts 1, 2, and 3 had levels below limits of quantitation (BQL<0.100 ng/mL) at all recorded time points.

Data set [3] deals with Wnt activity (Sp5-Luc reporter, SW480 colon carcinoma cells). Kind of data set: Sp5-Luc Wnt reporter gene assay. In kind it is cell-based. The following applies: Homo sapiens, FIG. 14. The text has this:
The compound of Formula (I) was screened for Wnt activity. The screening assay is described as follows. Reporter cell lines were generated by stably transducing cancer cell lines (e.g., colon cancer) or primary cells (e.g., IEC-6 intestinal cells) with a lentiviral construct that included a Wnt-responsive promoter driving expression of the firefly luciferase gene.
SW480 colon carcinoma cells were transduced with a lentiviral vector expressing luciferase with a human Sp5 promoter consisting of a sequence of eight TCF/LEF binding sites. SW480 cells stably expressing the Sp5-Luc reporter gene and a hygromycin resistant gene were selected by treatment with 150 μg/mL of hygromycin for 7 days. These stably transduced SW480 cells were expanded in cell culture and used for all further screening activities. […] Following incubation, 20 μL of BrightGlo luminescence reagent (Promega) was added to each well of the 384-well assay plates. The plates were placed on an orbital shaker for 2 min and then luminescence was quantified using the Envision (Perkin Elmer) plate reader. Readings were normalized to DMSO-only treated cells, and normalized activities were utilized for EC50 calculations using the dose-response log (inhibitor) vs. response—variable slope (four parameters) nonlinear regression feature available in GraphPad Prism 5.0 (or Dotmatics).
A general note: A reporter such as luciferase makes a cellular process visible.

The subject of data set [4] is chondrogenic and osteogenic gene expression in human MSCs. Kind of data set: Chondrogenic and osteogenic gene expression, qRT-PCR in human MSCs. As to conditions: 10 nM and 30 nM, 21 days. In kind it is cell-based. The protocol: Human MSCs were plated in 10 cm dishes in chondrogenic induction medium (Lonza; DMEM, dexamethasone, ascorbate, insulin-transferrin-selenium [ITS supplement], gentamycin-amphotericin [GA-1000], sodium pyruvate, proline and L-glutamine) and treated with the compound of Formula (I) in DMSO (10 nM and 30 nM) or TGF-β3 (20 μg/mL) as a positive control. Cells were incubated at 37° C., 5% CO2 for 21 days, with media changes every 5 days. Cells were pelleted and washed, and total RNA was isolated and purified using RNeasy Plus Mini Kit (Qiagen). cDNA was synthesized from 1 μg of total RNA using QuantiTect Reverse Transcription kit (Qiagen). qRT-PCR was performed with QuantiTect SYBR Green PCR Kit (Qiagen) and gene-specific primers, using CFX384 thermal cycler (Biorad). Transcripts were quantitated by comparative Ct method and normalized to endogenous controls, β-actin and GAPDH. Fold changes were normalized to DMSO treated cells.
In general terms: In qPCR the cycle at which signal appears reflects the starting amount.

Bounds are passed on as bounds.

As a reminder, the NOAEL is the highest dose or exposure tested at which no adverse effect was seen. For orientation: EC50 means the concentration that produces a half-maximal response. The low end stands for higher potency in that assay, the high end for lower potency in that assay.

Compound `CC(C)CC(=O)Nc1cncc(-c2ccc3[nH]nc(-c4nc5c(-c6cccc(F)c6)cncc5[nH]4)c3c2)c1` [compound of Formula (I)] registered a no observed adverse effect level (NOAEL) in data set [1] of 116 μg/knee. Also, the “plasma level (PK samples)” value in data set [2] is recorded as under 0.100 ng/mL. In data set [3], this compound yielded a concentration for a half-maximal effect (EC50) of 2 nM. Moreover, the chondrogenic gene expression result in data set [4] (FIG. 18A) is reported as “upregulated”. The osteogenic gene expression result in data set [4] (FIG. 18B) is reported as “downregulated”.
